Experimental data taken from PubChem BioAssay (NCI).
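Exposure lasted 48 hours, with cells grown in 96-well plates and compounds tested at five concentrations. At the GI50, growth is halved. Definition used: TGI = concentration required for complete inhibition of growth.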

Columns and labels:
Test in all cases: growth of human tumour cells (NCI), 48 h
[1] = tested on: UO-31 renal
[2] = tested on: RXF 393 renal
[3] = tested on: CAKI-1 renal
[4] = tested on: LOX IMVI melanoma
[5] = tested on: HOP-92 NSCLC
[6] = tested on: EKVX NSCLC
[7] = tested on: MDA-MB-435
[8] = tested on: M14 melanoma
[9] = tested on: SF-295 CNS
[10] = tested on: PC-3 prostate
[11] = tested on: CCRF-CEM leukemia
[12] = tested on: OVCAR-3 ovarian
[13] = tested on: K-562 leukemia
[14] = tested on: NCI-H226 lung
[15] = tested on: NCI-H460 lung
[16] = tested on: HOP-62 NSCLC
[17] = tested on: SNB-19 CNS
[18] = tested on: T-47D breast
[19] = tested on: HCT-15 colon
[20] = tested on: UACC-62 melanoma
[21] = tested on: SK-MEL-2 melanoma
[22] = tested on: SK-MEL-28 melanoma
[23] = tested on: HCC-2998 colon
[24] = tested on: SK-MEL-5 melanoma
[25] = tested on: SNB-75 CNS
[26] = tested on: HT29 colon
[27] = tested on: OVCAR-4 ovarian
[28] = tested on: SF-539 CNS
[29] = tested on: A498 renal
[30] = tested on: RPMI-8226 leukemia
[31] = tested on: NCI-H522 lung
[32] = tested on: UACC-257 melanoma
[33] = tested on: HCT-116 colon
[34] = tested on: NCI-H23 lung
[35] = tested on: OVCAR-5 ovarian
[36] = tested on: SF-268 CNS
[37] = tested on: MDA-MB-231 breast
[38] = tested on: COLO 205 colon
[39] = tested on: HS 578T breast
[40] = tested on: BT-549 breast
[41] = tested on: HL-60(TB) leukemia
[42] = tested on: NCI/ADR-RES ovarian
[43] = tested on: U251 CNS
[44] = tested on: ACHN renal
[45] = tested on: A549 NSCLC
[46] = tested on: IGROV1 ovarian
[47] = tested on: SW-620 colon
[48] = tested on: SK-OV-3 ovarian
[49] = tested on: OVCAR-8 ovarian
[50] = tested on: KM12 colon
[51] = tested on: MCF7 breast
[52] = tested on: TK-10 renal
[53] = tested on: 786-0 renal
[54] = tested on: SR leukemia
[55] = tested on: MALME-3M melanoma
[56] = tested on: MOLT-4 leukemia
[57] = tested on: DU-145 prostate
[58] = tested on: SN12C renal

C=CCc1ccc(O)c(-c2ccc(O)c(CC=C)c2)c1
GI50 [1]: 12.4 µM | TGI [1]: 27.3 µM | GI50 [2]: 18.9 µM | TGI [2]: 47.3 µM | GI50 [3]: 14.1 µM | TGI [3]: 29.4 µM | GI50 [4]: 15.7 µM | TGI [4]: 34.3 µM | GI50 [5]: 13.9 µM | TGI [5]: 31.1 µM | GI50 [6]: 7.11 µM | TGI [6]: 23.3 µM | GI50 [7]: 14.7 µM | TGI [7]: 31.5 µM | GI50 [8]: 21.4 µM | TGI [8]: 48.4 µM | GI50 [9]: 19.6 µM | TGI [9]: 44.7 µM | GI50 [10]: 15.2 µM | TGI [10]: 33.2 µM | GI50 [11]: 13.1 µM | TGI [11]: > 100 µM | GI50 [12]: 14.5 µM | TGI [12]: 30.6 µM | GI50 [13]: 8.54 µM | TGI [13]: > 46.1 µM | GI50 [14]: 18.4 µM | TGI [14]: 36.9 µM | GI50 [15]: 14.1 µM | TGI [15]: 35.3 µM | GI50 [16]: 20 µM | TGI [16]: 39.8 µM | GI50 [17]: 21.1 µM | TGI [17]: 37 µM | GI50 [18]: 20.3 µM | TGI [18]: > 53.9 µM | GI50 [19]: 16.5 µM | TGI [19]: 33.7 µM | GI50 [20]: 16 µM | TGI [20]: 30 µM | GI50 [21]: 14.5 µM | TGI [21]: 33 µM | GI50 [22]: 16.6 µM | TGI [22]: 31 µM | GI50 [23]: 18.4 µM | TGI [23]: 36.5 µM | GI50 [24]: 10.8 µM | TGI [24]: 23.4 µM | GI50 [25]: 22.1 µM | TGI [25]: > 46.6 µM | GI50 [26]: 23.3 µM | TGI [26]: 53.8 µM | GI50 [27]: 15.5 µM | TGI [27]: 35.8 µM | GI50 [28]: 16.6 µM | TGI [28]: 31.8 µM | GI50 [29]: 17.4 µM | TGI [29]: 31.9 µM | GI50 [30]: 14.6 µM | TGI [30]: > 55.9 µM | GI50 [31]: 10.4 µM | TGI [31]: 26.2 µM | GI50 [32]: 17.1 µM | TGI [32]: 40.6 µM | GI50 [33]: 20 µM | TGI [33]: > 54 µM | GI50 [34]: 16.3 µM | TGI [34]: 34.4 µM | GI50 [35]: 16.8 µM | TGI [35]: 38.9 µM | GI50 [36]: 10.8 µM | TGI [36]: 28 µM | GI50 [37]: 12.1 µM | TGI [37]: 25.6 µM | GI50 [38]: 18.5 µM | TGI [38]: 34.1 µM | GI50 [39]: 14.2 µM | TGI [39]: 39.7 µM | GI50 [40]: 13.2 µM | TGI [40]: 27.5 µM | GI50 [41]: 9.66 µM | TGI [41]: > 52.3 µM | GI50 [42]: 15.3 µM | TGI [42]: 33.9 µM | GI50 [43]: 14.3 µM | TGI [43]: 31.8 µM | GI50 [44]: 15.8 µM | TGI [44]: 30.6 µM | GI50 [45]: 30.7 µM | TGI [45]: > 100 µM | GI50 [46]: 5.67 µM | TGI [46]: 49.5 µM | GI50 [47]: 18.7 µM | TGI [47]: 36.9 µM | GI50 [48]: 22.1 µM | TGI [48]: 50.1 µM | GI50 [49]: 32.8 µM | TGI [49]: > 60.9 µM | GI50 [50]: 13.6 µM | TGI [50]: 34 µM | GI50 [51]: 8.06 µM | TGI [51]: 26.2 µM | GI50 [52]: 16 µM | TGI [52]: 33.9 µM | GI50 [53]: 16.8 µM | TGI [53]: 33.5 µM | GI50 [54]: 14.8 µM | TGI [54]: > 100 µM | GI50 [55]: 17.1 µM | TGI [55]: 34.9 µM | GI50 [56]: 4.94 µM | TGI [56]: > 39.9 µM | GI50 [57]: 15.8 µM | TGI [57]: 30.9 µM | GI50 [58]: 14.4 µM | TGI [58]: 29.6 µM
